Measured values as given in publication PMC4631615 (Bipolar disorders, 2015).
Values joined by “and” are separate entries in the source; they are usually repeats but may differ in a detail not shown here. Equal values may be shown once. Marks after values point to notes of the source that are not given here.

Assays:
mouse = conditions: source not given; cited from earlier work
SWV mouse fetuses [1] = assay: Skeletal examination of fetuses; assay type: in vivo
pregnant SWV mice [2] = assay: Pregnancy outcomes; assay type: in vivo, mouse
pregnant SWV mice [3] = assay: Maternal body weight and weight gain, teratogenicity study; assay type: in vivo, mouse; conditions: mean ± SD
SWV mouse fetuses [4] = conditions: for Overall teratogenicity under the experimental conditions: SWV mice, p.o. GD 4–17, doses as fractions of LD50
NMRI mice = conditions: injected on GD 8 with 3 mmol/kg; cited from earlier work
[5] = 1/6.54 of LD50 (RIS 9.6, OLA 32.1, VCD 152.8 mg/kg) p.o. GD 4–17
[6] = 1/13.1 of LD50 (OLA 16.05 mg/kg) p.o. GD 4–17
[7] = 1/6.54 of LD50 (RIS 9.6, OLA 32.1, VCD 152.8 mg/kg) p.o. GD 4–17, mean ± SD
[8] = 1/4.36 of LD50 (RIS 14.5, VCD 229.2 mg/kg) p.o. GD 4–17

Cc1cc2c(s1)Nc1ccccc1N=C2N1CCN(C)CC1 [OLA, 2-methyl-4-(4-methyl-1-piperazinyl)-10H-thieno(2,3-b)([1],[5])benzodiazepine]
LD50 mouse, oral (mouse): 210 mg/kg
All vertebra: incomplete ossification, affected fetuses (SWV mouse fetuses [1]; [5]): 3
All vertebra: incomplete ossification, affected litters (SWV mouse fetuses [1]; [5]): 1
Cervical vertebra: ossified fusion of centrums, affected fetuses (SWV mouse fetuses [1]; [5]): 0
Fetuses with skeletal abnormalities, % (SWV mouse fetuses [1]; [5]): 79.2%
Fibula: bent, affected fetuses (SWV mouse fetuses [1]; [5]): 0
Metacarpal: absent ossification, affected fetuses (SWV mouse fetuses [1]; [5]): 12
Metacarpal: absent ossification, affected litters (SWV mouse fetuses [1]; [5]): 8
Metacarpal: incomplete ossification, affected fetuses (SWV mouse fetuses [1]; [5]): 6
Metacarpal: incomplete ossification, affected litters (SWV mouse fetuses [1]; [5]): 3
Metatarsal: absent ossification, affected fetuses (SWV mouse fetuses [1]; [5]): 14
Metatarsal: absent ossification, affected litters (SWV mouse fetuses [1]; [5]): 9
Metatarsal: incomplete ossification, affected fetuses (SWV mouse fetuses [1]; [5]): 4
Metatarsal: incomplete ossification, affected litters (SWV mouse fetuses [1]; [5]): 3
Ribs: absent 13th, affected fetuses (SWV mouse fetuses [1]; [5]): 1/1
Ribs: absent 13th, affected litters (SWV mouse fetuses [1]; [5]): 1/1
Ribs: branched, affected fetuses (SWV mouse fetuses [1]; [5]): 0
Skull: incomplete ossification, affected fetuses (SWV mouse fetuses [1]; [5]): 1/1
Skull: incomplete ossification, affected litters (SWV mouse fetuses [1]; [5]): 1/1
Skull: interparietal incomplete ossification, affected fetuses (SWV mouse fetuses [1]; [5]): 1/1
Skull: interparietal incomplete ossification, affected litters (SWV mouse fetuses [1]; [5]): 1/1
Skull: parietal incomplete ossification, affected fetuses (SWV mouse fetuses [1]; [5]): 0
Skull: supraoccipital incomplete ossification, affected fetuses (SWV mouse fetuses [1]; [5]): 1/1
Skull: supraoccipital incomplete ossification, affected litters (SWV mouse fetuses [1]; [5]): 1/1
Sternebra: absent ossification, affected fetuses (SWV mouse fetuses [1]; [5]): 8
Sternebra: absent ossification, affected litters (SWV mouse fetuses [1]; [5]): 5
Sternebra: incomplete ossification, affected fetuses (SWV mouse fetuses [1]; [5]): 8
Sternebra: incomplete ossification, affected litters (SWV mouse fetuses [1]; [5]): 7
Sternebra: misaligned, affected fetuses (SWV mouse fetuses [1]; [5]): 0
Sternebra: misshapen, affected fetuses (SWV mouse fetuses [1]; [5]): 0
Whole skeletal system: incomplete ossification, affected fetuses (SWV mouse fetuses [1]; [5]): 7
Whole skeletal system: incomplete ossification, affected litters (SWV mouse fetuses [1]; [5]): 3
All vertebra: incomplete ossification, affected fetuses (SWV mouse fetuses [1]; [6]): 0
Cervical vertebra: ossified fusion of centrums, affected fetuses (SWV mouse fetuses [1]; [6]): 0
Fibula: bent, affected fetuses (SWV mouse fetuses [1]; [6]): 0
Metacarpal: absent ossification, affected fetuses (SWV mouse fetuses [1]; [6]): 1/1
Metacarpal: absent ossification, affected litters (SWV mouse fetuses [1]; [6]): 1/1
Metacarpal: incomplete ossification, affected fetuses (SWV mouse fetuses [1]; [6]): 47
Metacarpal: incomplete ossification, affected litters (SWV mouse fetuses [1]; [6]): 12
Metatarsal: absent ossification, affected fetuses (SWV mouse fetuses [1]; [6]): 8/8 ^b
Metatarsal: absent ossification, affected litters (SWV mouse fetuses [1]; [6]): 8/8 ^b
Metatarsal: incomplete ossification, affected fetuses (SWV mouse fetuses [1]; [6]): 20
Metatarsal: incomplete ossification, affected litters (SWV mouse fetuses [1]; [6]): 8
Ribs: absent 13th, affected fetuses (SWV mouse fetuses [1]; [6]): 0
Ribs: branched, affected fetuses (SWV mouse fetuses [1]; [6]): 0
Skull: incomplete ossification, affected fetuses (SWV mouse fetuses [1]; [6]): 0
Skull: interparietal incomplete ossification, affected fetuses (SWV mouse fetuses [1]; [6]): 4
Skull: interparietal incomplete ossification, affected litters (SWV mouse fetuses [1]; [6]): 3
Skull: parietal incomplete ossification, affected fetuses (SWV mouse fetuses [1]; [6]): 3
Skull: parietal incomplete ossification, affected litters (SWV mouse fetuses [1]; [6]): 2
Skull: supraoccipital incomplete ossification, affected fetuses (SWV mouse fetuses [1]; [6]): 1/1
Skull: supraoccipital incomplete ossification, affected litters (SWV mouse fetuses [1]; [6]): 1/1
Sternebra: absent ossification, affected fetuses (SWV mouse fetuses [1]; [6]): 4/4
Sternebra: absent ossification, affected litters (SWV mouse fetuses [1]; [6]): 4/4
Sternebra: incomplete ossification, affected fetuses (SWV mouse fetuses [1]; [6]): 25
Sternebra: incomplete ossification, affected litters (SWV mouse fetuses [1]; [6]): 11
Sternebra: misaligned, affected fetuses (SWV mouse fetuses [1]; [6]): 0
Sternebra: misshapen, affected fetuses (SWV mouse fetuses [1]; [6]): 0
Whole skeletal system: incomplete ossification, affected fetuses (SWV mouse fetuses [1]; [6]): 0
Fetus weight (pregnant SWV mice [2]; [7]): 0.66 ± 0.09 ^a g
Resorptions/litter (pregnant SWV mice [2]; [7]): 9.6 ± 3.9 ^a
Fetus weight (pregnant SWV mice [2]; 1/13.1 of LD50 (OLA 16.05 mg/kg) p.o. GD 4–17, mean ± SD): 0.83 ± 0.10 ^a g
Embryos resorbed (pregnant SWV mice [2]; 1/13.1 of LD50 (OLA 16.05 mg/kg, low dose) p.o. GD 4–17): 15%
Dams net weight gain (pregnant SWV mice [3]; [5]): 5.6 ± 2.0 ^a grams
Dams weight GD 18 (pregnant SWV mice [3]; [5]): 34.9 grams and 34.9 ± 4.0 ^a grams
Dams weight gain (pregnant SWV mice [3]; [5]): 8.0 ± 3.5 ^a grams
Dams net weight gain (pregnant SWV mice [3]; [6]): 8.8 ± 1.8 grams
Dams weight GD 18 (pregnant SWV mice [3]; [6]): 46.5 ± 3.6 grams
Dams weight gain (pregnant SWV mice [3]; [6]): 18.7 ± 3.8 grams
Overall teratogenicity under the experimental conditions (SWV mouse fetuses [4]): the most teratogenic of the three test drugs
Dilated brain ventricles, affected litters (SWV mouse fetuses [4]; female, SWV, mouse, in vivo): 2/2
Dilated renal pelvis, affected litters (SWV mouse fetuses [4]; female, SWV, mouse, in vivo): 2/2
Exencephaly, affected fetuses (SWV mouse fetuses [4]; female, SWV, mouse, in vivo): 0
Malposition stomach, affected fetuses (SWV mouse fetuses [4]; female, SWV, mouse, in vivo): 0
Right aortic arch, affected fetuses (SWV mouse fetuses [4]; female, SWV, mouse, in vivo): 0

Cc1nc2n(c(=O)c1CCN1CCC(c3noc4cc(F)ccc34)CC1)CCCC2 [RIS, 3-(2-(4-(6-fluoro-1,2-benzisoxazol-3-yl)piperidino)ethyl)-6,7,8,9-tetrahydro-2-methyl-4H-pyrido(1,2-a)pyrimidin-4-one]
LD50 mouse, oral (mouse): 63 mg/kg
All vertebra: incomplete ossification, affected fetuses (SWV mouse fetuses [1]; [8]): 0
Cervical vertebra: ossified fusion of centrums, affected fetuses (SWV mouse fetuses [1]; [8]): 0
Fetuses with skeletal abnormalities, % (SWV mouse fetuses [1]; [8]): 20.1%
Fibula: bent, affected fetuses (SWV mouse fetuses [1]; [8]): 0
Metacarpal: absent ossification, affected fetuses (SWV mouse fetuses [1]; [8]): 6
Metacarpal: absent ossification, affected litters (SWV mouse fetuses [1]; [8]): 1
Metacarpal: incomplete ossification, affected fetuses (SWV mouse fetuses [1]; [8]): 0
Metatarsal: absent ossification, affected fetuses (SWV mouse fetuses [1]; [8]): 6
Metatarsal: absent ossification, affected litters (SWV mouse fetuses [1]; [8]): 1
Metatarsal: incomplete ossification, affected fetuses (SWV mouse fetuses [1]; [8]): 0
Ribs: absent 13th, affected fetuses (SWV mouse fetuses [1]; [8]): 0
Ribs: branched, affected fetuses (SWV mouse fetuses [1]; [8]): 0
Skull: incomplete ossification, affected fetuses (SWV mouse fetuses [1]; [8]): 6
Skull: incomplete ossification, affected litters (SWV mouse fetuses [1]; [8]): 1
Skull: interparietal incomplete ossification, affected fetuses (SWV mouse fetuses [1]; [8]): 0
Skull: parietal incomplete ossification, affected fetuses (SWV mouse fetuses [1]; [8]): 1/1
Skull: parietal incomplete ossification, affected litters (SWV mouse fetuses [1]; [8]): 1/1
Skull: supraoccipital incomplete ossification, affected fetuses (SWV mouse fetuses [1]; [8]): 0
Sternebra: absent ossification, affected fetuses (SWV mouse fetuses [1]; [8]): 7
Sternebra: absent ossification, affected litters (SWV mouse fetuses [1]; [8]): 2
Sternebra: incomplete ossification, affected fetuses (SWV mouse fetuses [1]; [8]): 13
Sternebra: incomplete ossification, affected litters (SWV mouse fetuses [1]; [8]): 9
Sternebra: misaligned, affected fetuses (SWV mouse fetuses [1]; [8]): 0
Sternebra: misshapen, affected fetuses (SWV mouse fetuses [1]; [8]): 1/1
Sternebra: misshapen, affected litters (SWV mouse fetuses [1]; [8]): 1/1
Whole skeletal system: incomplete ossification, affected fetuses (SWV mouse fetuses [1]; [8]): 2
Whole skeletal system: incomplete ossification, affected litters (SWV mouse fetuses [1]; [8]): 1
All vertebra: incomplete ossification, affected fetuses (SWV mouse fetuses [1]; [5]): 0
Cervical vertebra: ossified fusion of centrums, affected fetuses (SWV mouse fetuses [1]; [5]): 0
Fetuses with skeletal abnormalities, % (SWV mouse fetuses [1]; [5]): 10.8%
Fibula: bent, affected fetuses (SWV mouse fetuses [1]; [5]): 0
Metacarpal: absent ossification, affected fetuses (SWV mouse fetuses [1]; [5]): 0
Metacarpal: incomplete ossification, affected fetuses (SWV mouse fetuses [1]; [5]): 1/1
Metacarpal: incomplete ossification, affected litters (SWV mouse fetuses [1]; [5]): 1/1
Metatarsal: absent ossification, affected fetuses (SWV mouse fetuses [1]; [5]): 0
Metatarsal: incomplete ossification, affected fetuses (SWV mouse fetuses [1]; [5]): 1/1
Metatarsal: incomplete ossification, affected litters (SWV mouse fetuses [1]; [5]): 1/1
Ribs: absent 13th, affected fetuses (SWV mouse fetuses [1]; [5]): 0
Ribs: branched, affected fetuses (SWV mouse fetuses [1]; [5]): 0
Skull: incomplete ossification, affected fetuses (SWV mouse fetuses [1]; [5]): 3
Skull: incomplete ossification, affected litters (SWV mouse fetuses [1]; [5]): 2
Skull: interparietal incomplete ossification, affected fetuses (SWV mouse fetuses [1]; [5]): 0
Skull: parietal incomplete ossification, affected fetuses (SWV mouse fetuses [1]; [5]): 0
Skull: supraoccipital incomplete ossification, affected fetuses (SWV mouse fetuses [1]; [5]): 0
Sternebra: absent ossification, affected fetuses (SWV mouse fetuses [1]; [5]): 0
Sternebra: incomplete ossification, affected fetuses (SWV mouse fetuses [1]; [5]): 5
Sternebra: incomplete ossification, affected litters (SWV mouse fetuses [1]; [5]): 4
Sternebra: misaligned, affected fetuses (SWV mouse fetuses [1]; [5]): 0
Sternebra: misshapen, affected fetuses (SWV mouse fetuses [1]; [5]): 3/3
Sternebra: misshapen, affected litters (SWV mouse fetuses [1]; [5]): 3/3
Whole skeletal system: incomplete ossification, affected fetuses (SWV mouse fetuses [1]; [5]): 1/1
Whole skeletal system: incomplete ossification, affected litters (SWV mouse fetuses [1]; [5]): 1/1
Resorption rate (pregnant SWV mice [2]; 1/4.36 of LD50 (RIS 14.5 mg/kg) p.o. GD 4–17): 12.4%
Fetus weight (pregnant SWV mice [2]; 1/4.36 of LD50 (RIS 14.5, VCD 229.2 mg/kg) p.o. GD 4–17, mean ± SD): 0.83 ± 0.05 ^a g
Fetus weight (pregnant SWV mice [2]; [7]): 0.89 ± 0.06 g
Dams net weight gain (pregnant SWV mice [3]; [8]): 7.4 ± 2.3 ^a grams
Dams weight GD 18 (pregnant SWV mice [3]; [8]): 47.1 ± 3.2 grams
Dams weight gain (pregnant SWV mice [3]; [8]): 18.1 grams and 18.1 ± 2.5 ^a grams
Dams net weight gain (pregnant SWV mice [3]; [5]): 7.5 ± 2.0 grams
Dams weight GD 18 (pregnant SWV mice [3]; [5]): 46.9 ± 4.8 grams
Dams weight gain (pregnant SWV mice [3]; [5]): 19.4 ± 4.2 grams
Overall teratogenicity under the experimental conditions (SWV mouse fetuses [4]): maternal-, embryo-, and fetotoxic
Cleft palate, affected fetuses (SWV mouse fetuses [4]; female, SWV, mouse, in vivo): 8
Dilated brain ventricles, affected litters (SWV mouse fetuses [4]; female, SWV, mouse, in vivo): 2/2
Exencephaly, affected litters (SWV mouse fetuses [4]; female, SWV, mouse, in vivo): 1/1
Fetuses with external abnormalities, % (SWV mouse fetuses [4]; female, SWV, mouse, in vivo): 0.4%
Malposition stomach, affected fetuses (SWV mouse fetuses [4]; female, SWV, mouse, in vivo): 0
Right aortic arch, affected fetuses (SWV mouse fetuses [4]; female, SWV, mouse, in vivo): 0

CCCC(CCC)C(=O)O [VPA, valproic acid]
Exposed fetuses with exencephaly (NMRI mice): 52%
Resorption rate (NMRI mice): 53%
